Laboratory results from US20250188110A1, “SPECIFIC SMALL MOLECULE INHIBITORS THAT BLOCK KMT9 METHYLTRANSFERASE ACTIVITY AND FUNCTION” (ALBERT-LUDWIGS-UNIVERSITÄT FREIBURG, priority 2021, published 2025).
Like-named read-outs stand apart in the source and are kept apart here.

Tests used:
[1] = target: T1, KMT9 (Homo sapiens, UniProt Q9Y5N5); experiment: Microscale thermophoresis (MST) KMT9 binding
T1 sequence (Q9Y5N5 1-214): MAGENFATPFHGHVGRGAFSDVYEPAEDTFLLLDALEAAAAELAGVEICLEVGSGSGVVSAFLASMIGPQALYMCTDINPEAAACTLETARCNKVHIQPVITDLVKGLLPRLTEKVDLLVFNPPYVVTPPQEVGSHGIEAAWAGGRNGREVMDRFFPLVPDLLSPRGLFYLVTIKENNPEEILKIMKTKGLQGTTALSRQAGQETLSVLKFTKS
T1 sequence (Q9UI30 1-120 isoform Q9UI30-2 partner): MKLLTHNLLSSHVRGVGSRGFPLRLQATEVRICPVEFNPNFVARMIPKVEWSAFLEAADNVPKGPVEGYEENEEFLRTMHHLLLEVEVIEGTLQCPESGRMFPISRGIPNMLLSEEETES
In short: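 Kd from microscale thermophoresis: compound series against 20 nM His-KMT9 labelled via RED-Tris-NTA, buffer 25 mM HEPES (pH 7.5)/100 mM NaCl/1 mM DTT/0.05% Tween, 40% MST power, 100% LED. Reported as classes: A ≤10 nM, B >10–100 nM, C >100–1000 nM, D >1000 nM.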

[2] = target: T1, KMT9; experiment: KMT9 thermal shift assay (SyproOrange); assay type: binding
In short: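 ΔTm versus DMSO-only control is reported in bins (>20 K, 15–20 K, 10–15 K, ≤10 K), using Tm from Boltzmann sigmoidal fits of SyproOrange melt curves. KMT9 with compound in pH 8.5 BTP buffer containing MgCl2 and DTT was preincubated at 25° C, then ramped 1° C per 15 s up to 95° C.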

[3] = target: T1, KMT9; experiment: KMT9 methyltransferase inhibition assay, MTaseGlo luminescence (from entry 155); assay type: biochemical; details: 100 nM KMT9, 5 μM ETF1, 1 μM SAM
In short: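 KMT9 (100 nM final) pre-incubated with inhibitor for 15 min at room temperature, then reacted with 5 μM ETF1 and 1 μM SAM for 2 h at 30° C. at 2% DMSO final. MTaseGlo luminescence read after 60 min detection; IC50 reported in four potency bins.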

[4] = microscale thermophoresis, His-tag labelled KMT9 (20 nM), read-out: MST
[5] = ΔTm, 500 µM compound, 2 μM KMT9, 5X SO, read-out: Thermal shift
[6] = from entry 155: MTaseGlo assay, read-out: Inhibition
[7] = His-tag labelled KMT9 20 nM, read-out: MST (Kd)
[8] = 500 µM compound, 2 μM KMT9, read-out: Thermal shift (ΔTm)
[9] = MTaseGlo procedure (entries from 155), read-out: Inhibition (IC50)
[10] = His-tag labelled KMT9 20 nM, Kd class, read-out: MST
[11] = ΔTm class, 500 uM compound, 2 μM KMT9, read-out: Thermal shift
[12] = IC50 class, MTaseGlo procedure (entries from 155 on), read-out: Inhibition

| Kd [1, 7] | ΔTm at 500 µM [2, 8] | IC50 [3, 9] | Kd [1, 10] | ΔTm at 500 µM [2, 11] | IC50 [3, 12] | SMILES | also measured |
| --- | --- | --- | --- | --- | --- | --- | --- |
|  |  |  |  |  |  | O[C@@H]1[C@@H](CNCCCNCCc2ccccc2)C[C@@H](n2cc3c4c(ncnc42)NCCCC3)[C@@H]1O [Compound 631, (1S,2R,3R,5R)-3-(((3-(phenethylamino)propyl)amino)methyl)-5-(7,8,9,10-tetrahydro-2,3,5,6-tetraazacycloocta [cd]inden-2 (6H)-yl)cyclopentane-1,2-diol] | Kd [1, 4]: 0.01 to 0.1 µM; ΔTm at 500 µM [2, 5]: 10 to 15 °C; IC50 [3, 6]: 1 to 10 µM |
| ≤ 0.01 µM | 10 to 15 °C | 0.1 to 1 µM |  |  |  | Nc1nc(Cl)nc2c1ccn2[C@@H]1C[C@H](c2ccc(O)cc2)[C@@H](O)[C@H]1O [Compound 655] |  |
|  |  |  | > 1 µM | ≤ 10 °C | > 10 µM | O[C@@H]1[C@H](O)[C@@H](C2CCN(CC(F)(F)F)CC2)C[C@H]1n1cc(-c2nc(Cc3ccccc3)cs2)c2cnc(Cl)nc21 [Compound 499, (1R,2S,3R,5R)-3-(5-(4-Benzylthiazol-2-yl)-2-chloro-7H-pyrrolo[2,3-d]pyrimidin-7-yl)-5-(1-(2,2,2-trifluoroethyl)piperidin-4-yl)cyclopentane-1,2-diol] |  |
|  |  |  | > 1 µM | ≤ 10 °C | > 10 µM | CCc1cn([C@@H]2C[C@H](c3ccccc3)[C@@H](O)[C@H]2O)c2ncnc(N)c12 [Compound 396, (1R,2S,3R,5R)-3-(4-amino-5-ethyl-7H-pyrrolo[2,3-d]pyrimidin-7-yl)-5-phenylcyclopentane-1,2-diol] |  |
| 0.01 to 0.1 µM | 10 to 15 °C | 1 to 10 µM |  |  |  | COc1cccc([C@H]2C[C@@H](n3cc(Br)c4c(N)nc(Cl)nc43)[C@H](O)[C@@H]2O)c1 [Compound 669, (1R,2S,3R,5R)-3-(4-amino-5-bromo-2-chloro-7H-pyrrolo[2,3-d]pyrimidin-7-yl)-5-(3-methoxyphenyl)cyclopentane-1,2-diol] |  |
| > 1 µM | ≤ 10 °C | > 10 µM |  |  |  | CNc1nc(Cl)nc2c1ccn2[C@@H]1C[C@H](c2cn[nH]c2)[C@@H](O)[C@H]1O [Compound 583, (1R,2S,3R,5R)-3-[2-chloro-4-(methylamino)pyrrolo[2,3-d]pyrimidin-7-yl]-5-(1H-pyrazol-4-yl)cyclopentane-1,2-diol] |  |
|  |  |  | > 1 µM | ≤ 10 °C | > 10 µM | O[C@@H]1[C@H](O)[C@@H](C2CCCN(CC(F)(F)F)C2)C[C@H]1n1cc(-c2nc(Cc3ccccc3)cs2)c2cnc(Cl)nc21 (stereo partly drawn) [Compound 517, (1R,2S,3R,5R)-3-(5-(4-benzylthiazol-2-yl)-2-chloro-7H-pyrrolo[2,3-d]pyrimidin-7-yl)-5-(1-(2,2,2-trifluoroethyl)-313-piperidin-3-yl)cyclopentane-1,2-diol] |  |
|  |  |  | 0.01 to 0.1 µM | 10 to 15 °C | 1 to 10 µM | O[C@@H]1[C@H](O)[C@@H](C2CCN(CC3CC3)CC2)C[C@H]1n1cc(-c2nc(Cc3ccccc3)cs2)c2cnc(Cl)nc21 [Compound 497, (1R,2S,3R,5R)-3-(5-(4-Benzylthiazol-2-yl)-2-chloro-7H-pyrrolo[2,3-d]pyrimidin-7-yl)-5-(1-(cyclopropylmethyl)piperidin-4-yl)cyclopentane-1,2-diol] |  |
|  |  |  | > 1 µM | ≤ 10 °C | > 10 µM | Nc1ncnc2c1c(Br)cn2[C@@H]1C[C@H](c2ccccc2)[C@@H](O)[C@H]1O [Compound 386, (1R,2S,3R,5R)-3-(4-amino-5-bromo-7H-pyrrolo[2,3-a]pyrimidin-7-yl)-5-phenylcyclopentane-1,2-diol] |  |
| 0.1 to 1 µM | ≤ 10 °C | 1 to 10 µM |  |  |  | Nc1nc(Cl)nc2c1ccn2[C@@H]1C[C@H](c2cn[nH]c2)[C@@H](O)[C@H]1O [Compound 582, (1R,2S,3R,5R)-3-{4-Amino-2-chloropyrrolo[2,3-d]pyrimidin-7-yl}-5-(1H-pyrazol-4-yl)cyclopentane-1,2-diol] |  |
| ≤ 0.01 µM | 10 to 15 °C | 1 to 10 µM |  |  |  | O[C@@H]1[C@H](O)C(CNCCCNCCc2ccc(F)cc2)C[C@H]1n1cc(-c2cccs2)c2cnc(Cl)nc21 (mixture of isomers) [Compound 581, (1R,2S,3R)-3-(2-chloro-5-(thiophen-2-yl)-7H pyrrolo[2,3-d]pyrimidin-7-yl)-5-(((3-((4-fluorophenethyl)amino)propyl)amino)methyl)cyclopentane-1,2-diol] |  |
|  |  |  | ≤ 0.01 µM | > 20 °C | 0.1 to 1 µM | CN1CCC([C@H]2C[C@@H](n3cc(-c4nc(Cc5ccccc5)cs4)c4c(N)nc(Cl)nc43)[C@H](O)[C@@H]2O)CC1 [Compound 505, (1R,2S,3R,5R)-3-(4-amino-5-(4-benzylthiazol-2-yl)-2-chloro-7H-pyrrolo[2,3-d]pyrimidin-7-yl)-5-(1-methylpiperidin-4-yl)cyclopentane-1,2-diol] |  |
| ≤ 0.01 µM | 15 to 20 °C | 0.1 to 1 µM |  |  |  | Cn1ccc(-c2cn([C@@H]3C[C@H](c4cccc(CN5CCC5)c4)[C@@H](O)[C@H]3O)c3nc(Cl)nc(N)c23)n1 [Compound 674, (1R,2S,3R,5R)-3-(4-amino-2-chloro-5-(1-methyl-1H-pyrazol-3-yl)-7H-pyrrolo[2,3-d]pyrimidin-7-yl)-5-(3-(azetidin-1-ylmethyl)phenyl)cyclopentane-1,2-diol] |  |
|  |  |  | 0.01 to 0.1 µM | 10 to 15 °C | 1 to 10 µM | O[C@@H]1[C@H](O)[C@@H](C2CCN(CCc3ccccc3)CC2)C[C@H]1n1cc(-c2nc(Cc3ccccc3)cs2)c2cnc(Cl)nc21 [Compound 498, (1R,2S,3R,5R)-3-(5-(4-Benzylthiazol-2-yl)-2-chloro-7H-pyrrolo[2,3-d]pyrimidin-7-yl)-5-(1-phenethylpiperidin-4-yl)cyclopentane-1,2-diol] |  |
| ≤ 0.01 µM | 15 to 20 °C | 0.1 to 1 µM |  |  |  | Nc1nc(Cl)nc2c1c(-c1nc(Cc3ccccc3)cs1)cn2[C@@H]1C[C@H](C2CCN(Cc3cccs3)CC2)[C@@H](O)[C@H]1O [Compound 526, (1R,2S,3R,5R)-3-(4-amino-5-(4-benzylthiazol-2-yl)-2-chloro-7H-pyrrolo[2,3-d]pyrimidin-7-yl)-5-(1-(thiophen-2-ylmethyl)piperidin-4-yl)cyclopentane-1,2-diol] |  |
| ≤ 0.01 µM | 15 to 20 °C | 0.1 to 1 µM |  |  |  | CN1CCC[C@H]([C@H]2C[C@@H](n3cc(-c4nc(Cc5ccccc5)cs4)c4c(N)nc(Cl)nc43)[C@H](O)[C@@H]2O)C1 [Compound 597R, (1R,2S,3R,5R)-3-(4-Amino-5-(4-benzylthiazol-2-yl)-2-chloro-7H-pyrrolo[2,3-d]pyrimidin-7-yl)-5-((R)-1-methylpiperidin-3-yl)cyclopentane-1,2-diol] |  |
|  |  |  | > 1 µM | ≤ 10 °C | > 10 µM | O[C@@H]1[C@H](O)[C@@H](C2=CCCN(CCc3ccccc3)C2)C[C@H]1n1cc(-c2nc(Cc3ccccc3)cs2)c2cnc(Cl)nc21 [Compound 588, (1R,2S,3R,5R)-3-[5-(4-Benzyl-1,3-thiazol-2-yl)-2-chloropyrrolo[2,3-d]pyrimidin-7-yl]-5-[1-(2-phenylethyl)-5,6-dihydro-2H-pyridin-3-yl]cyclopentane-1,2-diol] |  |
|  |  |  |  |  |  | Nc1ncnc2c1ccn2[C@@H]1C[C@H](c2cccs2)[C@@H](O)[C@H]1O [Compound 390, (1R,2S,3R,5S)-3-(4-amino-7H-pyrrolo[2,3-a]pyrimidin-7-yl)-5-(thiophen-2-yl) cyclopentane-1,2-diol] | Kd [1, 4]: > 1 µM; ΔTm at 500 µM [2, 5]: ≤ 10 °C; IC50 [3, 6]: > 10 µM |
